In US7635664B2, “Herbicidal substituted benzoylpyrazoles” (Bayer CropScience AG, priority 2001, dated 2009):

Experiment: logP determination by HPLC on reversed-phase column, acidic range
Format: physicochemical
From the text: (a) Mobile phases for the determination in the acidic range: 0.1% aqueous phosphoric acid, acetonitrile; linear gradient from 10% acetonitrile to 90% acetonitrile—the corresponding measurement results in Table 1 are marked ^a).

[1] = marked a): acidic range, 0.1% aqueous phosphoric acid/acetonitrile gradient, reversed-phase C 18 HPLC, 43° C.
[2] = HPLC reversed-phase column (C 18), 43° C., acidic range: 0.1% aqueous phosphoric acid, acetonitrile; marked a)

logP [1]	logP [2]	Compound
(I-1) logP = 2.93^a)		CCn1ncc(C(=O)c2ccc(C(F)(F)F)cc2NC(=O)N(C)OC)c1O [Example 7]
(I-1) logP = 2.50^a)		CON(C)C(=O)Nc1cc(C(F)(F)F)ccc1C(=O)c1cnn(C)c1O [Example 8]
(I-2) logP = 1.55^a)		CN1CCCN(C(=O)Nc2c(Cl)ccc(C(=O)c3cnn(C)c3O)c2Cl)C1=O [Example 9]
(I-2) logP = 0.82^a)		Cn1ncc(C(=O)c2ccc(Cl)c(NC(=O)N3CCOCC3)c2Cl)c1O [Example 10]
(I-1) logP = 2.42^a)		CCn1ncc(C(=O)c2ccc(C(F)(F)F)cc2NC(=O)N2CCN(C)C2=O)c1O [Example 11]
(I-2) logP = 1.63^a)		CCN1CCN(C(=O)Nc2c(Cl)ccc(C(=O)c3cnn(C)c3O)c2Cl)C1=O [Example 12]
(I-2) logP = 1.86^a)		CCN1CCN(C(=O)Nc2c(Cl)ccc(C(=O)c3cnn(CC)c3O)c2Cl)C1=O [Example 13]
(I-2) logP = 1.25^a)		CCn1ncc(C(=O)c2ccc(Cl)c(NC(=O)NN3CCOCC3)c2Cl)c1O [Example 14]
(I-2) logP = 1.03^a)		Cn1ncc(C(=O)c2ccc(Cl)c(NC(=O)NN3CCOCC3)c2Cl)c1O [Example 15]
(I-2) logP = 1.17^a)		Cn1ncc(C(=O)c2ccc(Cl)c(NC(=O)NN3CCCC3)c2Cl)c1O [Example 16]
(I-1) logP = 2.12^a)		CN1CCN(C(=O)Nc2cc(C(F)(F)F)ccc2C(=O)c2cnn(C)c2O)C1=O [Example 17]
(I-2) logP = 2.11^a)		CCN1CCCN(C(=O)Nc2c(Cl)ccc(C(=O)c3cnn(CC)c3O)c2Cl)C1=O [Example 18]
(I-2) logP = 1.83^a)		CCN1CCCN(C(=O)Nc2c(Cl)ccc(C(=O)c3cnn(C)c3O)c2Cl)C1=O [Example 19]
(I-2) logP = 0.99^a)		Cn1ncc(C(=O)c2ccc(Cl)c(NC(=O)NC3CC3)c2Cl)c1O [Example 21]
(I-2) logP = 1.18^a)		Cn1ncc(C(=O)c2ccc(Cl)c(NC(=O)N3CCCC3)c2Cl)c1O [Example 24]
(I-2) logP = 2.11^a)		CC(C)N1CCCN(C(=O)Nc2c(Cl)ccc(C(=O)c3cnn(C)c3O)c2Cl)C1=O [Example 33]
(I-2) logP = 1.10^a)		Cn1ncc(C(=O)c2ccc(Cl)c(NC(=O)NCC3CCCO3)c2Cl)c1O (stereo not drawn) [Example 41]
(I-2) logP = 1.99^a)		Cn1ncc(C(=O)c2ccc(Cl)c(NC(=O)Nc3nnc(C(F)(F)F)s3)c2Cl)c1O [Example 47]
(I-2) logP = 1.40^a)		CCn1ncc(C(=O)c2ccc(Cl)c(N(C)C(=O)N3CCN(C)C3=O)c2Cl)c1O [Example 99]
(I-2) logP = 1.42^a)		CCn1ncc(C(=O)c2ccc(Cl)c(NC(=O)NN3CCCC3)c2Cl)c1O [Example 100]
(I-2) logP = 2.42^a)		CCn1ncc(C(=O)c2ccc(Cl)c(NC(=O)N3CCCN(C(C)C)C3=O)c2Cl)c1O [Example 101]
(I-2) logP = 3.30^a)		CCn1ncc(C(=O)c2ccc(Cl)c(NC(=O)N3CCCN(C4CCCCC4)C3=O)c2Cl)c1O [Example 102]
(I-1) logP = 1.78^a)		CCn1ncc(C(=O)c2ccc(C(F)(F)F)cc2N(C)C(=O)N2CCN(C)C2=O)c1O [Example 103]
(I-2) logP = 1.25^a)		CCn1ncc(C(=O)c2ccc(Cl)c(NC(=O)NC3CC3)c2Cl)c1O [Example 104]
(I-2) logP = 1.33^a)		CCn1ncc(C(=O)c2ccc(Cl)c(NC(=O)NCC3CCCO3)c2Cl)c1O (stereo not drawn) [Example 105]
(I-2) logP = 1.75^a)		CCn1ncc(C(=O)c2ccc(Cl)c(NC(=O)N3CCCCC3)c2Cl)c1O [Example 106]
(I-2) logP = 1.50^a)		Cn1ncc(C(=O)c2ccc(Cl)c(NC(=O)N3CCCCC3)c2Cl)c1O [Example 107]

logP [1]	logP [2]	Compound
(I-2) logP = 1.06^a)		CCn1ncc(C(=O)c2ccc(Cl)c(NC(=O)NOC)c2Cl)c1O [Example 108]
(I-2) logP = 0.72^a)		CONC(=O)Nc1c(Cl)ccc(C(=O)c2cnn(C)c2O)c1Cl [Example 109]
(I-2) logP = 1.52^a)		CCn1ncc(C(=O)c2ccc(Cl)c(NC(=O)N3CCCC3)c2Cl)c1O [Example 110]
(I-3) logP = 1.74^a)		CCn1ncc(C(=O)c2ccc(NC(=O)N3CCN(C)C3=O)cc2OC)c1O [Example 111]
(I-2) logP = 1.07^a)		CCONC(=O)Nc1c(Cl)ccc(C(=O)c2cnn(C)c2O)c1Cl [Example 127]
(I-2) logP = 1.33^a)		CCONC(=O)Nc1c(Cl)ccc(C(=O)c2cnn(CC)c2O)c1Cl [Example 128]
(I-2) logP = 1.45^a)		CCn1ncc(C(=O)c2ccc(Cl)c(NC(=O)C3=NOCC3)c2Cl)c1O [Example 148]
(I-2) logP = 1.18^a)		Cn1ncc(C(=O)c2ccc(Cl)c(NC(=O)C3=NOCC3)c2Cl)c1O [Example 149]
(I-2) logP = 1.54^a)		CCn1ncc(C(=O)c2ccc(Cl)c(NC(=O)c3ccco3)c2Cl)c1O [Example 156]
(I-2) logP = 1.11^a)		Cn1ncc(C(=O)c2ccc(Cl)c(NC(=O)N3CCCO3)c2Cl)c1O [Example 161]
(I-2) logP = 1.38^a)		CCn1ncc(C(=O)c2ccc(Cl)c(NC(=O)N3CCCO3)c2Cl)c1O [Example 162]
(I-2) logP = 2.88^a)		CCn1ncc(C(=O)c2ccc(Cl)c(N(C)C(=O)N3CCN(C)C3=O)c2Cl)c1O [Example 171]
(I-2) logP = 1.96^a)		CCn1ncc(C(=O)c2ccc(Cl)c(NC(=O)NN3CCCCC3)c2Cl)c1O [Example 172]
(I-2) logP = 1.70^a)		Cn1ncc(C(=O)c2ccc(Cl)c(NC(=O)NN3CCCCC3)c2Cl)c1O [Example 173]
(I-2) logP = 1.20^a)		CCn1ncc(C(=O)c2ccc(Cl)c(NC(=O)Nc3nnc(C)o3)c2Cl)c1O [Example 174]
(I-2) logP = 2.24^a)		CCn1ncc(C(=O)c2ccc(Cl)c(NC(=O)Nc3nnc(C(F)(F)F)s3)c2Cl)c1O [Example 175]
(I-2) logP = 1.39^a)		CCn1ncc(C(=O)c2ccc(Cl)c(NC(=O)N=c3sccn3C)c2Cl)c1O [Example 176]
(I-2) logP = 1.13^a)		Cn1ncc(C(=O)c2ccc(Cl)c(NC(=O)N=c3sccn3C)c2Cl)c1O [Example 177]
(I-2) logP = 1.43^a)		CCn1ccsc1=NC(=O)Nc1c(Cl)ccc(C(=O)c2cnn(C)c2O)c1Cl [Example 178]
(I-2) logP = 1.72^a)		CCn1ncc(C(=O)c2ccc(Cl)c(NC(=O)N=c3sccn3CC)c2Cl)c1O [Example 179]
(I-2) logP = 1.13^a)		CCn1ncc(C(=O)c2ccc(Cl)c(NC(=O)NCC(OC)OC)c2Cl)c1O [Example 180]
(I-2) logP = 1.63^a)		CCn1ncc(C(=O)c2ccc(Cl)c(NC(=O)N3CCCCO3)c2Cl)c1O [Example 181]
(I-2) logP = 1.36^a)		Cn1ncc(C(=O)c2ccc(Cl)c(NC(=O)N3CCCCO3)c2Cl)c1O [Example 182]
(I-2) logP = 1.53^a)		CCn1nc(C)c(C(=O)c2ccc(Cl)c(NC(=O)N3CCCCO3)c2Cl)c1O [Example 183]
(I-2) logP = 1.34^a)		Cc1nn(C)c(O)c1C(=O)c1ccc(Cl)c(NC(=O)N2CCCCO2)c1Cl [Example 184]
	(I-2) logP = 1.10^a)	Cc1nn(C)c(O)c1C(=O)c1ccc(Cl)c(NC(=O)N2CCCO2)c1Cl [Example 185]
	(I-2) logP = 1.31^a)	CCn1nc(C)c(C(=O)c2ccc(Cl)c(NC(=O)N3CCCO3)c2Cl)c1O [Example 186]
